Read-outs that look alike come from different tables or passages of the source. Blank lines part the entries; values can stand above or below the molecule they belong to.
What was measured:
reverse transcriptase = settings: cited from earlier work
[1] = test system: peripheral blood lymphocytes; assay: uptake of radiolabelled drug by peripheral blood lymphocytes (PBL); assay type: in vitro ADME
Method: DP-AZT was therefore tested to determine if the problem of rapid elimination and inadequate permeability could be overcome.
PBL from HIV seronegative donors were also separated by standard Ficol-Hypaque gradient centrifugation. The lymphocytes were grown in RPMI 1640 supplemented with 15% heat-inactivated FBS, 100 U/ml penicillin, 100 μg/ml streptomycin and 2 μg/ml PHA. The cells were incubated for 4 days at 37° C. and uptake studies were done according to the procedure described above for H9 cells.

HIV-1 = assay: inhibition of HIV-1 replication in PBL (p24 antigen in culture supernatant); assay type: cell-based; settings: for P24 antigen in culture supernatant: drug-free control 372,835 pg/ml
Method: The concentration of virus-specificp24 antigen in the culture, and, therefore the ability of each drug to inhibit HIV replication was measured by their ability to inhibit production of the p24 antigen.
Inhibition of HIV-1 replication was determined using PBL from seronegative donors. PBL activated with 2 μg/ml PHA for 72 hrs were washed with medium and 10×10^6 cells were incubated for 4 hr at 37° C. (Mitsuya et al., PNAS USA 82:7096, […]) in 5 ml medium containing the appropriate concentration of the drug. The cells were then infected with 10^4 TCID50 of HIV (isolated CD 451) by the addition of 0.1 ml of virus preparation and gentle rocking of the cultures of 15 min intervals for 90 min at room temperature. The fluid volume was increased to 10ml and the cultures maintained at 37° C. in a humidified 5% CO2 -in-air atmosphere. On day 3 post-infection, half the cell-free fluid in each culture was removed and replaced with fresh medium containing the respective drug. The extent of HIV replication in a control and the experimental cultures was evaluated 7 days post-infection by quantifying the concentration of HIV-specific p24 antigen in an undiluted and 5-fold serial dilutions of the culture supernatants using commercial antigen-capture assay kits (DuPont, Billerica, Mass.). The concentration of HIV-specific p24 antigen in the 7 day supernatant fluid of a drug-free control culture was 372,835 pg/ml.

[2] = in vivo; cited from earlier work
H9 cells = assay: uptake of radiolabelled drug by H9 cells; assay type: in vitro ADME; settings: for cellular uptake relative to AZT, in words: H9 cells (FIGS. 6, 7)
Method: The reaction was stopped by centrifugation at 13,000×g for 1 min. The cell free supernatant was discarded by aspiration and the cell pellet was washed with ice cold PBS to remove any traces of free radioactive drug. The cell pellet was resuspended in PBS and counted for radioactivity in a Tri-carb Packard liquid scintillation analyzer Model 1500 (Packard Instruments Co., Dowers Grove, Ill.) and the percentage of radioactivity was calculated. (All experiments were done in duplicate and repeated at least three times).

AIDS = settings: cited from earlier work
p24 gag protein of HIV = settings: in vitro; Mitsuya et al. 1985; cited from earlier work
[3] = Richman et al. 1987; cited from earlier work
[4] = hydrolysis of DP-AZT by rat liver microsomes; assay type: in vitro ADME; settings: 15.5 mg protein/ml, 37° C., 0 to 4 h
Method: (§1) In contrast, bone marrow cells were able to hydrolyze only 50% of the pro-drug at the end of 4 hours of incubation.
To 900 μl of rat liver microsomes containing 15.5 mg protein/ml (Wong et al., Biochem. Pharmacol. 37:473, 1988), 100 μl of DP-AZT (2 mg/ml dissolved in dimethylsulfoxide) was added and incubated at 37° C. in a water bath. At various time intervals (0 to 4 h) 100 μl of sample was withdrawn and added immediately to ice-cold methanol (400 μl).

[5] = hydrolysis of DP-AZT by human plasma in vitro; assay type: in vitro ADME; settings: up to 4 hours in incubation
[6] = physical and chemical stability; assay type: physicochemical
Excerpt: The general pattern of synthesis of DP-AZT is outlined in FIG. 1. Treatment of 3,-azido-2',3'-dideoxythymidine in the presence of DCC and 4-dimethyl amino pyridine in ethyl acetate yield the nicotinyl ester. The ester is then quarternized by refluxing it in acetone with methyl iodide. […] In addition to DP-AZT, other derivatives at the N-methyl site in particular can also be prepared.

mouse bone marrow cells = assay: bone marrow toxicity: inhibition of [3H]-thymidine uptake in murine bone marrow cells; assay type: cell-based; settings: for less inhibition of [3H]-thymidine incorporation into bone marrow cells than AZT: relative to AZT, 60 h exposure, 12 h pulse
Method: The percent inhibition of [^3 H]-thymidine uptake was used as an indication of bone marrow toxicity (FIG. 5).
The bone marrow cells were obtained from CD-1 mice as described under Section 6.2.3, supra. Approximately 2×10^5 cells in 100 μl of medium were plated in a 96-well plate, 100 μl of drug solution at various concentrations (0-500 μM) was added, and the plate was incubated at 37° C. for 60 hr. [^3 H]-Thymidine (0.2 μc/well, specific activity 30 c/mmole) was pulsed for 12 hr, and at the end of 72 hr cells were harvested by using Skatron 7019 cell harvester.

[7] = test system: peripheral blood lymphocytes; assay: hydrolysis of DP-AZT to AZT in PBL; assay type: in vitro ADME; settings: 500 μM DP-[3H]-AZT, 5×10^5 PBL, 37° C., 4 h
Method: as §1
Suspensions of 5×10^5 PBL (100 μl) in Eppendorf tubes were mixed with 100 μl of 500 μM DP-AZT and incubated at 37° C. At various time intervals (0 to 4 hrs), cell pellets were collected after centrifugation at 13,000×g for 1 min, washed with PBS and extracted with ice-cold 0.2 M perchloric acid. The acid extracts were clarified by centrifugation, neutralized with KOH, centrifuged to remove insoluble potassium perchlorate, evaporated to dryness under reduced pressure (Buchler Evapo-Mix apparatus) and constituted with 200 μl of methanol (Zimmerman et al., J. Biol. Chem. 262:5748, 1987).

[8] = hydrolysis of DP-AZT in mouse bone marrow cells; assay type: in vitro ADME; settings: end of 4 hours of incubation, read-out: hydrolysis of the pro-drug
Method: as §1
Bone marrow cells were obtained from femurs of 8-week old CD-1 mice. The femurs were removed asceptically and rinsed in RPMI-1640. Bone marrow cells were flushed with medium by using a 19-gauge needle and a single cell suspension was made by pipette action. These cells were used for hydrolytic experiments similar to described above for PBL.

HIV = settings: Yamamoto et al. 1986; cited from earlier work
[9] = test system: retrovirally infected mice; settings: Watson et al. 1988; cited from earlier work
[10] = 0.5 μM drug, 7 days post-infection
[11] = 5.0 μM drug, 7 days post-infection
[12] = 10.0 μM drug, 7 days post-infection
[13] = Human immunodeficiency virus 1, PBL, 168 h, 0.5 μM drug, 7 days post-infection, read-out: p24 antigen, % reduction of control
[14] = Human immunodeficiency virus 1, PBL, 168 h, 5.0 μM drug, 7 days post-infection, read-out: p24 antigen, % reduction of control
[15] = Human immunodeficiency virus 1, PBL, 168 h, 10.0 μM drug, 7 days post-infection, read-out: p24 antigen, % reduction of control

Molecule: Cc1cn([C@H]2C[C@H](N=[N+]=[N-])[C@@H](COP(=O)(O)OP(=O)(O)OP(=O)(O)O)O2)c(=O)[nH]c1=O [AZT triphosphate]
- reverse transcriptase inhibition, in words (reverse transcriptase): competitive inhibitor of reverse transcriptase

Molecule: Cc1cn([C@H]2C[C@H](N=[N+]=[N-])[C@@H](CO)O2)c(=O)[nH]c1=O [AZT, 3'-azido-2',3'-dideoxythymidine, reference compound]
- time to maximum intracellular concentration ([1]; 5 μM, PBL): 2 h
- uptake linearity ([1]; 5 μM, PBL): linear for one hour
- P24 antigen in culture supernatant (HIV-1; [10]): 67,273 pg/ml
- P24 antigen in culture supernatant (HIV-1; [11]): 1,758 pg/ml
- P24 antigen in culture supernatant (HIV-1; [12]): 2,235 pg/ml
- inhibition at 0.5 µM (HIV-1; [13]): 82%
- inhibition at 5 µM (HIV-1; [14]): 99.5%
- inhibition at 10 µM (HIV-1; [15]): 99.4%
- half-life in plasma, in words [2]: very short half-life in plasma
- reverse transcriptase inhibition, in words (reverse transcriptase): does not inhibit reverse transcriptase
- time to maximum intracellular concentration (H9 cells; 5 μM, H-9 cells): 2 h
- uptake linearity (H9 cells; 5 μM, H-9 cells): linear for one hour
- mortality in comparison with placebo, in words (AIDS; Fischl et al. 1987): significant differences in mortality
- progression of disease, in words (AIDS; individuals with AIDS-related complex, Fischl et al.): delay the progression of the disease
- expression of p24 gag protein of HIV, in words (p24 gag protein of HIV): blocks the expression of the p24 gag protein of HIV
- major adverse reactions [3]: nausea, myalgia and insomnia

Molecule: Cc1cn([C@H]2C[C@H](N=[N+]=[N-])[C@@H](COC(=O)C3=CN(C)C=CC3)O2)c(=O)[nH]c1=O [DP-AZT, 5,-[(1,4-dihydro-1-methyl-3-pyridinylcarbonyl)oxy] -3,-azido-2',3'dideoxythymidine]
- time to maximum intracellular concentration ([1]; 5 μM, PBL): 2 h
- uptake linearity ([1]; 5 μM, PBL): linear for one hour
- higher intracellular concentration than [3H]-AZT ([1]; PBL, 5 μM, relative to AZT): at least 50%
- efficacy against HIV-1 relative to AZT, in words (HIV-1; 0.5 μM): significantly greater efficacy against HIV-1 than AZT had
- P24 antigen in culture supernatant (HIV-1; [10]): 3,310 pg/ml
- P24 antigen in culture supernatant (HIV-1; [11]): 475 pg/mL
- P24 antigen in culture supernatant (HIV-1; [12]): 215 pg/mL
- inhibition at 0.5 µM (HIV-1; [13]): 99.1%
- inhibition at 5 µM (HIV-1; [14]): 99.9%
- inhibition at 10 µM (HIV-1; [15]): 99.9%
- inhibition at 0.5 µM (HIV-1; Human immunodeficiency virus 1, read-out: inhibition (p24 antigen)): 99%
- hydrolysis by rat liver microsomes [4]: hydrolyzed by rat-liver microsomes (FIG. 4) in a manner similar to that observed in PBL
- hydrolysis by human plasma in vitro [5]: not hydrolyzed
- air oxidation stability ([6]; during crystallization and drying): stable compound which does not undergo air oxidation
- result of attempted chemical oxidation ([6]; hydrogen peroxide or sodium nitrate solution): hydrolysis of the ester producing AZT
- time to maximum intracellular concentration (H9 cells; 5 μM, H-9 cells): 2 h
- uptake linearity (H9 cells; 5 μM, H-9 cells): linear for one hour
- higher intracellular concentration than [3H]-AZT (H9 cells; H-9 cells, 5 μM, relative to AZT): at least 50%
- less inhibition of [3H]-thymidine incorporation into bone marrow cells than AZT (mouse bone marrow cells; 5 μM): 44%
- less inhibition of [3H]-thymidine incorporation into bone marrow cells than AZT (mouse bone marrow cells; 10 μM): 59%
- bone marrow toxicity relative to AZT, in words (mouse bone marrow cells; 5 and 10 μM): significantly less toxic than AZT
- hydrolysis of the pro-drug [7]: complete hydrolysis of the pro-drug within four hours
- metabolised at 4 h, 500 µM [8]: 50%

- cellular uptake relative to AZT, in words (H9 cells): improved cellular uptake
Molecule: Cc1cn([C@H]2C[C@H](N=[N+]=[N-])[C@@H](COC(=O)CN3CCN(c4ccccc4)CC3)O2)c(=O)[nH]c1=O [N-phenylpiperazine analogue]

Molecule: CC1=C(/C=C/C(C)=C/C=C/C(C)=C/C(=O)O)C(C)(C)CCC1 [Retinoic acid]
- HIV replication, in words (HIV): inhibit HIV replication somewhat

- hygroscopicity [6]: hygroscopic
Molecule: Cc1cn([C@H]2C[C@H](N=[N+]=[N-])[C@@H](COC(=O)c3ccc[n+](C)c3)O2)c(=O)[nH]c1=O [compound 2]

Molecule: Cc1cn([C@H]2C[C@H](N=[N+]=[N-])[C@@H](COC(=O)C(N)Cc3ccccc3)O2)c(=O)[nH]c1=O (some centres unmarked) [phenylalanine AZT analogue]
- cellular uptake relative to AZT, in words ([1]; PBL (FIG. 8)): improved over AZT with respect to cellular uptake

Molecule: CC1=C(/C=C/C(C)=C/C=C/C(C)=C/C(=O)OC[C@H]2O[C@@H](n3cc(C)c(=O)[nH]c3=O)C[C@@H]2N=[N+]=[N-])C(C)(C)CCC1 [retinoic acid ester of AZT]
- cellular uptake relative to AZT, in words (H9 cells): a substantial improvement over cellular uptake of AZT

Molecule: Cc1cn([C@H]2C[C@H](N=[N+]=[N-])[C@@H](COC(=O)C(N)Cc3ccc(O)cc3)O2)c(=O)[nH]c1=O (some centres unmarked) [tyrosine AZT analogue]
- cellular uptake relative to AZT, in words (H9 cells): improved over AZT with respect to cellular uptake

Molecule: Vitamin A
- activated macrophages and death rate, in words [9]: increased numbers of activated macrophages and decreased death rate
